Test results published in patent US12187727B2, “Methods for antagonizing a melanocortin 4 receptor” (Pfizer Inc., priority 2020, dated 2025).
Where two headings read alike, the source gives them in different places.

Columns and labels:
[1] = target: hMC4R (Homo sapiens (Human), UniProt P32245); assay: In vitro binding affinity assay using hMC4R (radioligand competition binding, [125I]-(Nle4, D-Phe7)-α-MSH); conditions: geometric mean
Experimental: Example AA. In Vitro Binding Affinity Assay Using hMC4R
The binding affinity of test compounds at the […] (hMC4R) was assessed using a radioligand competition binding assay. […] Cell membranes were bulked and frozen until the assay was performed.
Compounds were solubilized in 100% dimethyl sulfoxide (DMSO) to a concentration of 30 mM. A 10-point intermediate dilution series using half log dilutions was created in 100% DMSO with a top concentration of 0.03 mM. […] The final compound range in the assay was 300 nM to 0.01 nM with a final DMSO concentration of 1%. […] The exact concentration of radioligand used for each experiment was determined by liquid scintillation counting and adjusted if necessary.
Frozen hMC4R cell membranes were thawed and Dounce homogenized. Homogenates were resuspended in assay buffer to a concentration of 2 μg per well. […] The plates were incubated for 2 hours at room temperature.
The raw data (expressed as counts per minute) were analyzed using ActivityBase (IDBS Data Management Software). […] Equilibrium dissociation constant for inhibitor of ligand and receptor interaction (Ki) values were then calculated from the IC50 values using the Cheng-Prusoff equation: Ki=IC50/(1+([L]/Kd)), where [L] is the concentration of the radioligand used in the experiment and Kd is the affinity of the radioligand (determined in separate saturation experiments).

[2] = target: human Melanocortin-4 receptor (MC4R) (Homo sapiens (Human), UniProt P32245); assay: Functional in vitro MC4R antagonist potency assay (cAMP HTRF in CHO cells); type: cell-based
Sequence of human Melanocortin-4 receptor (MC4R) (P32245 whole entry): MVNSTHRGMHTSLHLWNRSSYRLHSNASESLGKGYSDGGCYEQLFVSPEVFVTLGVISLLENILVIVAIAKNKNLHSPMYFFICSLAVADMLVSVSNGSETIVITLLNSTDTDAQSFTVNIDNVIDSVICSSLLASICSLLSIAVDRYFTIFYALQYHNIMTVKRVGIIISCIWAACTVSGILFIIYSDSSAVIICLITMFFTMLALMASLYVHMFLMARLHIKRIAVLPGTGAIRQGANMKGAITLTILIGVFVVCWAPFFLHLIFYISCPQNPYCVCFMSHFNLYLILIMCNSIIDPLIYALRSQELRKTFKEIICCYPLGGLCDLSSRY
Procedure, shortened: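 CHO cells stably expressing human MC4R were preincubated 30 min at 37 °C with compound ([…], 0.1% DMSO), then stimulated 30 min with EC80 αMSH (200 nM). Intracellular cAMP quantified by HTRF competitive immunoassay and normalized to agonist-stimulated and vehicle-only wells.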

[3] = read-out: Ki (nM) geometric mean
[4] = read-out: Kb (nM) Antagonist geometric mean
[5] = human MC4R in CHO cells, cAMP HTRF, 200 nM aMSH challenge, Kb from IC50 by Leff-Dougall equation, geometric mean, read-out: Kb (nM) Antagonist geometric

Sequence of hMC4R (P32245 whole entry): as above

Ki [1, 3] [nM]	SMILES	other results
> 250	COc1ncc(Cl)c([C@@H](C)C(=O)N2CC[C@@]3(CCc4cc(-c5ncccn5)c(C)nc4N3)C2)n1 (single isomer, unassigned) [Example 85]	–
76	Cc1nc2c(cc1-c1ncccn1)CC[C@@]1(CCN(C(=O)C(C)c3ccc(C(F)(F)F)cc3)C1)N2 (single isomer, unassigned) [Example 8]	Kb [2, 4]: > 95 nM
–	COc1cc([C@@H](C)C(=O)N2CC[C@@]3(CCc4cc(-c5nc6ccccn6n5)c(C)nc4N3)C2)nc(C(F)F)n1 (single isomer, unassigned) [Example 129]	Ki ([1]; read-out: Ki (nM) geometric): 0.44 nM; Kb [2, 5]: 1.5 nM
> 250	Cc1nc2c(cc1-c1ncccn1)CC[C@@]1(CCN(C(=O)[C@H](C)c3cc(C(F)(F)F)ncc3F)C1)N2 (single isomer, unassigned) [Example 79]	–
180	Cc1nc2c(cc1-c1ncccn1)CC[C@@]1(CCN(C(=O)[C@H](C)c3cc(OC(F)(F)F)ncc3F)C1)N2 (single isomer, unassigned) [Example 75]	–
> 2200	Cc1ccc2c(n1)NC1(CCN(C(=O)Cc3ccc(F)cc3)C1)CC2C (single isomer, unassigned) [Example 11, 1-(4,7-dimethyl-3,4-dihydro-1H-spiro[1,8-naphthyridine-2,3′-pyrrolidin]-1′-yl)-2-(4-fluorophenyl)ethan-1-one]	–
110	COc1cc([C@@H](C)C(=O)N2CC[C@@]3(CCc4ccc(C)nc4N3)C2)c(Cl)cn1 (single isomer, unassigned) [Example 101]	–
84	Cc1nc2c(cc1-c1ncccn1)CC[C@@]1(CCN(C(=O)[C@H](C)c3cc(OC(F)F)ncc3F)C1)N2 (single isomer, unassigned) [Example 77]	–
120	Cc1nc2c(cc1-c1ncccn1)CC[C@@]1(CCN(C(=O)[C@H](C)c3cc(N(C)C)ncc3F)C1)N2 (single isomer, unassigned) [Example 82]	–
20	COc1cc([C@](C)(F)C(=O)N2CC[C@@]3(CCc4cc(-c5ncccn5)c(C)nc4N3)C2)ccn1 (single isomer, unassigned) [Example 47]	–
> 2200	Cc1ccc2c(n1)NC1(CCN(C(=O)Cc3ccc(F)cc3)C1)CC2C (single isomer, unassigned) [Example 12, 1-(4,7-dimethyl-3,4-dihydro-1H-spiro[1,8-naphthyridine-2,3′-pyrrolidin]-1′-yl)-2-(4-fluorophenyl)ethan-1-one]	–
–	COc1ncc(F)c([C@@H](C)C(=O)N2CC[C@@]3(CCc4cc(-c5nc6ccccn6n5)c(C)nc4N3)C2)n1 (single isomer, unassigned) [Example 133]	Ki ([1]; read-out: Ki (nM) geometric): 63 nM
–	COc1cc([C@@H](C)C(=O)N2CC[C@@]3(CCc4cc(Cl)c(C)nc4N3)C2)c(F)cn1 (single isomer, unassigned) [Example 103]	Ki ([1]; read-out: Ki (nM) geometric): > 250 nM
–	Cc1nc2c(cc1-c1nnn(C)n1)CC[C@@]1(CCN(C(=O)[C@H](C)c3ccc(C(F)(F)F)cc3)C1)N2 (single isomer, unassigned) [Example 110]	Ki ([1]; read-out: Ki (nM) geometric): 29 nM
380	Cc1ccc2c(n1)NC1(CCN(C(=O)Cc3ccc(F)cc3)C1)CC2C (single isomer, unassigned) [Example 9, 1-(4,7-dimethyl-3,4-dihydro-1H-spiro[1,8-naphthyridine-2,3′-pyrrolidin]-1′-yl)-2-(4-fluorophenyl)ethan-1-one]	–
> 200	Cc1nc2c(cc1-c1ncccn1)CC[C@@]1(CCN(C(=O)[C@H](C)c3cc(C(F)(F)F)ncc3Cl)C1)N2 (single isomer, unassigned) [Example 38]	–
> 200	Cc1nc2c(cc1-c1ncccn1)CC[C@@]1(CCN(C(=O)C(C)c3ccc(OC(F)F)nc3)C1)N2 (single isomer, unassigned) [Example 5]	–
99	Cc1nc2c(cc1-c1ncccn1)CC[C@@]1(CCN(C(=O)[C@H](C)c3cc(OC(F)F)ncc3Cl)C1)N2 (single isomer, unassigned) [Example 59]	–

Ki [1, 3] [nM]	SMILES	other results
17	COc1cc(OC)cc([C@@H](C)C(=O)N2CC[C@@]3(CCc4cc(-c5cnn(C)c5)c(C)nc4N3)C2)c1 (single isomer, unassigned) [Example 91]	–
2.3	COc1ncc(Cl)c([C@@H](C)C(=O)N2CC[C@@]3(CCc4cc(-c5ncccn5)c(C)nc4N3)C2)n1 (single isomer, unassigned) [Example 86]	–
0.6	Cc1nc2c(cc1-c1cnn(C)c1)CCC1(CCN(C(=O)Cc3ccc(F)cc3)C1)N2 (single isomer, unassigned) [Example 20, 2-(4-fluorophenyl)-1-[7-methyl-6-(1-methyl-1H-pyrazol-4-yl)-3,4-dihydro-1H-spiro[1,8-naphthyridine-2,3′-pyrrolidin]-1′-yl]ethan-1-one]	–
81	COc1cc([C@@H](C)C(=O)N2CC[C@@]3(CCc4ccc(C)nc4N3)C2)c(F)cn1 (single isomer, unassigned) [Example 99]	–
52	COc1cc([C@@H](C)C(=O)N2CC[C@@]3(CCc4cc(-c5ncccn5)c(C)nc4N3)C2)cc(OC)n1 (single isomer, unassigned) [Example 84]	–
180	COc1cc([C@@H](C)C(=O)N2CC[C@@]3(CCc4cc(-c5ncccn5)c(C)nc4N3)C2)c(C(F)F)cn1 (single isomer, unassigned) [Example 37]	–
43	COc1ccc([C@@H](C)C(=O)N2CC[C@@]3(CCc4cc(-c5ncccn5)c(C)nc4N3)C2)cc1F (single isomer, unassigned) [Example 43]	–
100	COc1cc(OC)cc([C@@H](C)C(=O)N2CC[C@@]3(CCc4ccc(C)nc4N3)C2)c1 (single isomer, unassigned) [Example 97]	–
–	COc1cc([C@@H](C)C(=O)N2CC[C@@]3(CCc4cc(-c5ncccn5)c(C)nc4N3)C2)cc(OC(F)F)n1 (single isomer, unassigned) [Example 193]	Ki ([1]; read-out: Ki (nM) geometric): 28 nM
> 220	Cc1nc2c(cc1-c1cnn(C)c1)CCC1(CCN(C(=O)Cc3ccc(F)cc3)C1)N2 (single isomer, unassigned) [Example 19, 2-(4-fluorophenyl)-1-[7-methyl-6-(1-methyl-1H-pyrazol-4-yl)-3,4-dihydro-1H-spiro[1,8-naphthyridine-2,3′-pyrrolidin]-1′-yl]ethan-1-one]	–
40	COc1cc(OC(F)F)cc([C@@H](C)C(=O)N2CC[C@@]3(CCc4cc(-c5ncccn5)c(C)nc4N3)C2)c1 (single isomer, unassigned) [Example 61]	–
–	COc1cc([C@@H](C)C(=O)N2CC[C@@]3(CCc4cc(-c5nnn(C)n5)c(C)nc4N3)C2)ccn1 (single isomer, unassigned) [Example 126]	Ki ([1]; read-out: Ki (nM) geometric): 140 nM
440	Cc1ccc2c(n1)NC1(CCN(C(=O)Cc3ccc(F)cc3)C1)CC2C (single isomer, unassigned) [Example 10, 1-(4,7-dimethyl-3,4-dihydro-1H-spiro[1,8-naphthyridine-2,3′-pyrrolidin]-1′-yl)-2-(4-fluorophenyl)ethan-1-one]	–
–	COc1cc([C@@H](C)C(=O)N2CC[C@@]3(CCc4cc(-c5cn(C(F)(F)F)c(C)n5)c(C)nc4N3)C2)c(F)cn1 [Example 27, (2R)-2-(5-fluoro-2-methoxypyridin-4-yl)-1-{(2S)-7-methyl-6-[2-methyl-1-(trifluoromethyl)-1H-imidazol-4-yl]-3,4-dihydro-1H-spiro[1,8-naphthyridine-2,3′-pyrrolidin]-1′-yl}propan-1-one]	Kb [2, 4]: 4.6 nM
–	COc1cc([C@@H](C)C(=O)N2CC[C@@]3(CCc4cc(-c5nc6ccccn6n5)c(C)nc4N3)C2)c(Cl)cn1 [Example 117, (2R)-2-(5-chloro-2-methoxypyridin-4-yl)-1-[(2S)-7-methyl-6-([1,2,4]triazolo[1,5-a]pyridin-2-yl)-3,4-dihydro-1H-spiro[1,8-naphthyridine-2,3′-pyrrolidin]-1′-yl]propan-1-one]	Kb [2, 5]: 0.07 nM
–	COc1cc([C@](C)(F)C(=O)N2CC[C@@]3(CCc4cc(-c5ncccn5)c(C)nc4N3)C2)ccn1 (single isomer, unassigned) [Example 46]	Kb [2, 4]: 7.2 nM
–	COc1cc([C@@H](C)C(=O)N2CC[C@@]3(CCc4cc(-c5nc(N(C)C)cc(C(F)(F)F)n5)c(C)nc4N3)C2)c(F)cn1 [Example 185, (2R)-1-{(2S)-6-[4-(dimethylamino)-6-(trifluoromethyl)pyrimidin-2-yl]-7-methyl-3,4-dihydro-1H-spiro[1,8-naphthyridine-2,3′-pyrrolidin]-1′-yl}-2-(5-fluoro-2-methoxypyridin-4-yl)propan-1-one]	Ki ([1]; read-out: Ki (nM) geometric): 5.5 nM
–	[2H]c1cc([2H])nc(-c2cc3c(nc2C)N[C@@]2(CC3)CCN(C(=O)[C@H](C)c3cc(OC)ncc3F)C2)n1 [Example 18, (2R)-2-(5-Fluoro-2-methoxypyridin-4-yl)-1-{(2S)-7-methyl-6-[(4,6-^2H2)pyrimidin-2-yl]-3,4-dihydro-1H-spiro[1,8-naphthyridine-2,3′-pyrrolidin]-1′-yl}propan-1-one]	Kb [2]: 0.55 nM

SMILES	Ki [1, 3] [nM]	other results
Cc1nc2c(cc1-c1ncccn1)CC[C@@]1(CCN(C(=O)C(C)c3cc(OC(F)(F)F)ncc3Cl)C1)N2 (single isomer, unassigned) [Example 63]	94	–
